Values after ≈ are worked out from the molar mass of the structure shown.
Assays:
[1] = system: Pseudomonas aeruginosa; assay: Antibacterial activity against blaVIM-2-positive Pseudomonas aeruginosa by CLSI broth microdilution method; format: functional
[2] = system: Pseudomonas aeruginosa; assay: Antibacterial activity against blaVIM-2-positive Pseudomonas aeruginosa by CLSI Etest method; format: functional

Row | MIC [2] [µg/mL] | SMILES | MIC [1] [µg/mL]
1 |  | C[C@@H](O)[C@H]1C(=O)N2C(C(=O)O)=C(S[C@@H]3CN[C@H](C(=O)N(C)C)C3)[C@H](C)[C@H]12 [MEROPENEM] | 32 (≈ 83.4 µM)
2 | ≥ 128 | C[C@@H](O)[C@H]1C(=O)N2C(C(=O)O)=C(SCCNC=N)C[C@H]12 [IMIPENEM ANHYDROUS] | 
